Source: paper PMC6225253, “Chemical Constituents and Antidepressant-Like Effects in Ovariectomized Mice of the Ethanol Extract of Alternanthera philoxeroides” (Molecules : A Journal of Synthetic Chemistry and Natural …, 2018)

Assays:
Type in all cases: in vivo
[1] = tested on: ovariectomized (OVX) mice; assay: Forced swimming test (FST) in ovariectomized mice; settings: oral once daily 8 weeks, E2 1 μg/kg/day, extract 250 and 500 mg/kg/day, vs vehicle-treated OVX group
Method: (§1) The depressive-like symptoms of the OVX mice were evaluated using FST and TST (Figure 2A,B).
(§2) After a 3-day recovery period, the animals were divided into five groups: (1) sham, (2) ovariectomy (OVX), (3) ovariectomy + 1 μg/kg 17β-estradiol, (OVX + E2), (4) ovariectomy + 250 mg/kg of A. philoxeroides extract (OVX + AP250), and (5) ovariectomy + 500 mg/kg of A. philoxeroides extract (OVX + AP500). The sham and OVX control groups were orally administered distilled water 0.2 mL per mouse once daily for 8 weeks. 17β-Estradiol and A. philoxeroides extract were suspended in distilled water and orally administered 0.2 mL per mouse once daily for 8 weeks. To assess the effects of 17β-estradiol and A. philoxeroides extract in OVX mice, the drugs were administered 1 h before the behavioral tests. At the end of behavioral studies, the mice were anesthetized with pentobarbital sodium (Nembutal®) 60 mg/kg (i.p.). Thereafter, blood sera (1 mL) were collected by cardiac puncture and centrifuged (3000 rpm; 4 °C) for 15 min [53]. 17β-Estradiol and corticosterone levels were evaluated in the serum. […] Hippocampus and frontal cortex were collected for semi-quantitative reverse transcription-polymerase chain reaction (RT-PCR) assay. […]
The procedure was adapted from Vogel et al.. […] During a 6 min period, the total immobility time was recorded for the last 4 min.

[2] = tested on: ovariectomized (OVX) mice; assay: Tail suspension test (TST) in ovariectomized mice; settings: oral once daily 8 weeks, E2 1 μg/kg/day, extract 250 and 500 mg/kg/day, vs vehicle-treated OVX group
Method: as §1, §2
The tail suspension test was used to assess the antidepressant effects of A. philoxeroides extract. […] The animal behavior was video-recorded for 6 min. […]

[3] = tested on: ovariectomized (OVX) mice; assay: Serum 17β-estradiol level of OVX mice (electrochemiluminescence immunoassay); settings: OVX mice + E2 1 μg/kg/day, oral, 8 weeks; mean ± SEM, n = 3–4
Method: (§3) The levels of serum 17β-estradiol were evaluated (after decapitation) by electrochemiluminescence immunoassay. […] The weight and volume of the uterus were determined as an index of estrogen receptors activation.
as §2

[4] = tested on: uterus of OVX mice; assay: Uterine weight and volume of OVX mice
Method: as §3
After a 3-day recovery period, the animals were divided into five groups: (1) sham, (2) ovariectomy (OVX), (3) ovariectomy + 1 μg/kg 17β-estradiol, (OVX + E2), (4) ovariectomy + 250 mg/kg of A. philoxeroides extract (OVX + AP250), and (5) ovariectomy + 500 mg/kg of A. philoxeroides extract (OVX + AP500). The sham and OVX control groups were orally administered distilled water 0.2 mL per mouse once daily for 8 weeks. 17β-Estradiol and A. philoxeroides extract were suspended in distilled water and orally administered 0.2 mL per mouse once daily for 8 weeks. To assess the effects of 17β-estradiol and A. philoxeroides extract in OVX mice, the drugs were administered 1 h before the behavioral tests. At the end of behavioral studies, the mice were anesthetized with pentobarbital sodium (Nembutal®) 60 mg/kg (i.p.). Thereafter, blood sera (1 mL) were collected by cardiac puncture and centrifuged (3000 rpm; 4 °C) for 15 min [53]. 17β-Estradiol and corticosterone levels were evaluated in the serum. Uteri were removed, trimmed of connective tissue and fat for measuring and weighing. Hippocampus and frontal cortex were collected for semi-quantitative reverse transcription-polymerase chain reaction (RT-PCR) assay. Both serum and all tissues were collected rapidly and kept at −80 °C for all experiments.

[5] = tested on: HPA-axis (serum corticosterone); assay: Serum corticosterone level of OVX mice (ELISA); settings: extract 250 and 500 mg/kg/day, E2 1 µg/kg/day, p < 0.001 vs vehicle-treated OVX group
Method: The serum corticosterone was evaluated to clarify the feedback mechanism in the HPA-axis on the estrogen deprivation in the OVX mice. […] Serum corticosterone level was determined by corticosterone (CORT) ELISA kit (Assaypro LLC. St. Charles, MO, USA) and corticosterone was used as a standard, according to the previously described procedure. The serum of the sample 25 µL was added in 96-well microplates of ELISA kit and immediately added 25 µL of biotinylated corticosterone to each well. The 96-well microplates were gently mixed and incubated for 2 h at room temperature and then washed with 200 µL of wash buffer for five times and added 50 µL of streptavidin-peroxidase conjugate into each well before incubation for 30 minutes. Each well was washed with 200 µL of wash buffer for five times again and then added 50 µL of chromogen substrate and incubated for 20 minutes. The reaction was stopped by adding 50 µL of stop solution. The absorbance was immediately measured at 450 nm.

[6] = tested on: CREB and BDNF mRNAs; assay: CREB and BDNF mRNA expression in hippocampus and frontal cortex (semi-quantitative RT-PCR); settings: hippocampus and frontal cortex of OVX mice; extract 250 and 500 mg/kg/day, E2 1 μg/kg/day
Source text: After completing the behavioral analysis, mice were decapitated under anesthesia. Mouse cyclic AMP response element binding protein (CREB), brain-derived neurotrophic factor (BDNF), and β-actin mRNAs expression in hippocampus and frontal cortex were semi-quantified by RT-PCR as described previously. Total RNA was extracted from the tissues with TRIzol® (Thermo Fisher Scientific Inc., CA, USA) according to the manufacturer’s instructions. First-strand cDNA was synthesized with oligo (dT) primers and SuperScript III reverse transcriptase (Thermo Fischer Scientific Inc., California, USA). PCR amplification was carried out using gene-specific PCR primer sets as follows: β-actin: 5′-AACGGTCTCACGTCAGTGTA-3′ (sense) and 5′-GTGACAGCATTGCTTCTGTG-3′ (antisense); BDNF: 5′-GACAAGGCAACTTGGCCTAC-3′ (sense) and 5′-CCTGTCACACACGCTCAGCTC-3′ (antisense); and CREB: 5′-GAGGCAGCTTGAACAACAAC-3′ (sense) and 5′-TACCCAGGGAGGAGCAATAC-3′ (antisense). […] The amplified products were visualized, photographed under ultraviolet and semi-quantified by GeneSnap software (GSL Biotech, Chicago, IL, USA) and ImageJ software (National Institutes of Health, Bethesda, MD, USA). The relative mRNA expression (BDNF/β-actin and CREB/β-actin) in each treatment were calculated by comparing with the sham group.

[7] = OVX mice + E2 1 μg/kg/day, oral, 8 weeks, mean ± SEM

C[C@]12CC[C@@H]3c4ccc(O)cc4CC[C@H]3[C@@H]1CC[C@@H]2O [17β-estradiol]
Immobility time in FST [1]: significantly shorter immobility time
Immobility time in TST [2]: significantly shorter immobility time
17β-estradiol (serum) [3]: 24.81 ± 1.11 pg/mL
Uterine Volume [4, 7]: 2.305 ± 0.02 ** cm^3/kg
Uterine Weight [4, 7]: 3.055 ± 0.04 g/kg
Effect on uterus weight and volume ([4]; OVX mice, extract 250 and 500 mg/kg/day, E2 1 µg/kg/day, vs vehicle-treated OVX): statistically significant effects on uterus weight and volume
Serum corticosterone level (effect on HPA-axis) [5]: decreasing the serum corticosterone level
CREB and BDNF mRNA expression levels [6]: reversible by 17β-estradiol treatment
